Drawing on PubChem BioAssay AID330 (DTP/NCI, 2004), this text covers T/C for 28 molecules.

The subject of this test is P388 leukemia ip, CD2F1 mice, survival T/C. Kind of test: NCI In Vivo Anticancer Drug Screen. Data for tumor model P388 Leukemia (intraperitoneal) in CD2F1 (CDF1) mice. To be noted: endpoint: median survival time, higher = longer survival. The method, boiled down:
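Mice carrying the transplanted tumor received test compound or vehicle. Survival was recorded in each group, and the value is the treated-group measurement divided by that of the vehicle-treated control group.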

The mark [1] stands for this setting: dose: 12.5 mg/kg/injection, schedule: Q01DX005 (ip), vehicle: Klucel (hydroxypropylcellulose) (HPC).
Where [2] appears, read: dose: 25.0 mg/kg/injection, schedule: Q01DX005 (ip), vehicle: Klucel (hydroxypropylcellulose) (HPC).
Where [3] appears, read: dose: 50.0 mg/kg/injection, schedule: Q01DX005 (ip), vehicle: Klucel (hydroxypropylcellulose) (HPC).
The mark [4] stands for this setting: dose: 100.0 mg/kg/injection, schedule: Q01DX005 (ip), vehicle: Klucel (hydroxypropylcellulose) (HPC).
Setting [5] is: dose: 200.0 mg/kg/injection, schedule: Q01DX005 (ip), vehicle: Klucel (hydroxypropylcellulose) (HPC).
Where [6] appears, read: dose: 50.0 mg/kg/injection, schedule: Q01DX009 (ip), vehicle: saline.
Where [7] appears, read: dose: 100.0 mg/kg/injection, schedule: Q01DX009 (ip), vehicle: saline.
The mark [8] stands for this setting: dose: 200.0 mg/kg/injection, schedule: Q01DX009 (ip), vehicle: saline.
Where [9] appears, read: dose: 50.0 mg/kg/injection, schedule: Q01DX005 (ip), vehicle: saline with Tween-80.
Setting [10] is: dose: 50.0 mg/kg/injection, schedule: Q01DX009 (ip), vehicle: saline with Tween-80.
Where [11] appears, read: dose: 100.0 mg/kg/injection, schedule: Q01DX009 (ip), vehicle: saline with Tween-80.
Setting [12] is: dose: 200.0 mg/kg/injection, schedule: Q01DX009 (ip), vehicle: saline with Tween-80.
[13] abbreviates: dose: 300.0 mg/kg/injection, schedule: Q04DX003 (ip), vehicle: saline with Tween-80.
Setting [14] is: dose: 60.0 mg/kg/injection, schedule: Q01DX005 (ip), vehicle: saline with Tween-80.
Where [15] appears, read: dose: 60.0 mg/kg/injection, schedule: Q01DX005 (ip), vehicle: saline.
Setting [16] is: dose: 120.0 mg/kg/injection, schedule: Q01DX005 (ip), vehicle: saline.

Where “and” joins values, the source holds several entries; their conditions need not be identical. Equal values may be shown once. Inconclusive results and toxic doses are left out.

For the molecule `CC1(O)CC2(O)C=CC3=C(C(=O)c4cccc(O)c4C3=O)C2(O)C(=O)C1O` (centres undefined), the T/C runs as follows: (dose: 0.75 mg/kg/injection, schedule: Q01DX005 (ip), vehicle: distilled water + Tween-80 + alcohol) 107 % of control; (dose: 1.5 mg/kg/injection, schedule: Q01DX005 (ip), vehicle: distilled water + Tween-80 + alcohol) 114 % of control.

For `O=C1NC(=O)c2ccc3c4ccc5c6c(ccc(c7ccc1c2c73)c64)C(=O)N(c1ccccc1)C5=O`, the T/C reads like this: (dose: 6.25 mg/kg/injection, schedule: Q01DX005 (ip), vehicle: Klucel (hydroxypropylcellulose) (HPC)) 99 % of control; under setting [1], 101 % of control and 94 % of control; under setting [2], 107 % of control; under setting [3], 93 % of control; under setting [4], 95 % of control; under setting [5], 88 % of control.

`COCC(=O)c1ccc(Cl)cc1`: the T/C under setting [6] was 105 % of control; the T/C under setting [7] was 110 % of control and 96 % of control; the T/C under setting [8] is 105 % of control and 107 % of control.

Turning to `Nc1nnc(SCCCCCCSc2nnc(N)s2)s1`, the T/C is, setting by setting: under setting [9], 86 % of control; (dose: 100.0 mg/kg/injection, schedule: Q01DX005 (ip), vehicle: saline with Tween-80) 86 % of control.

With `OCC1OC(OC2C(CO)OC(S)C(O)C2O)C(O)C(O)C1O` (centres undefined), the T/C reads like this: under setting [10], 98 % of control; under setting [11], 92 % of control; under setting [12], 92 % of control.

Turning to `COc1ccc2c(c1)CCc1c(-c3noc4c3CCc3cc(OC)ccc3-4)noc1-2`, the T/C was 92 % of control (dose: 60.0 mg/kg/injection, schedule: Q01DX005 (ip), vehicle: Klucel + Tween-80); 96 % of control (dose: 120.0 mg/kg/injection, schedule: Q01DX005 (ip), vehicle: Klucel + Tween-80); 100 % of control (dose: 240.0 mg/kg/injection, schedule: Q01DX005 (ip), vehicle: Klucel + Tween-80).

With `CC(=O)Nc1ccc(C)c2ccccc12`, the T/C reads like this: (dose: 75.0 mg/kg/injection, schedule: Q04DX003 (ip), vehicle: saline with Tween-80) 100 % of control; (dose: 150.0 mg/kg/injection, schedule: Q04DX003 (ip), vehicle: saline with Tween-80) 104 % of control; under setting [13], 108 % of control.

For the molecule `CC(C)(C)c1ccc(N)c(N)c1`, the T/C was 98 % of control (dose: 50.0 mg/kg/injection, schedule: Q01DX009 (ip), vehicle: DMSO) and 99 % of control (dose: 100.0 mg/kg/injection, schedule: Q01DX009 (ip), vehicle: DMSO).

Consider `CC(NC(=O)C(CCCCN)N(C(=O)OCc1ccccc1)C(=O)OCc1ccccc1)C(=O)O` (centres undefined) (tested in a mixture with another compound), for which the T/C runs as follows: (dose: 50.0 mg/kg/injection, schedule: Q01DX005 (ip), vehicle: suspension in saline) 111 % of control; (dose: 100.0 mg/kg/injection, schedule: Q01DX005 (ip), vehicle: suspension in saline) 111 % of control; (dose: 200.0 mg/kg/injection, schedule: Q01DX005 (ip), vehicle: suspension in saline) 110 % of control.

Consider `Brc1ccc(C[N+]23CCN(CC2)CC3)cc1`, for which the T/C by setting is: (dose: 12.5 mg/kg/injection, schedule: Q01DX009 (ip), vehicle: saline with Tween-80) 95 % of control; (dose: 25.0 mg/kg/injection, schedule: Q01DX009 (ip), vehicle: saline with Tween-80) 90 % of control; under setting [10], 90 % of control.

As to `Cc1ccc(C)c(C(=O)/C=C/C(=O)O)c1`, the T/C runs as follows: (dose: 25.0 mg/kg/injection, schedule: Q01DX005 (ip), vehicle: saline with Tween-80) 114 % of control; under setting [9], 115 % of control and 117 % of control.

Turning to `CC1COS(=O)(=O)CS(=O)(=O)O1` (centres undefined), under setting [14], the T/C was 100 % of control.

As to `O=P(Oc1ccccc1)(Oc1ccccc1)C(O)C(Cl)(Cl)Cl` (centres undefined), the T/C by setting is: under setting [10], 107 % of control; under setting [11], 100 % of control and 117 % of control; under setting [12], 103 % of control.

On to `NCCCCC(N)C(=O)O` (centres undefined), for which the T/C under setting [6] is 104 % of control, the T/C under setting [7] was 100 % of control and the T/C under setting [8] was 94 % of control.

Consider `CCc1cc(CN2CCN(CCO)CC2)c(O)c(CN2CCN(CCO)CC2)c1`, for which the T/C is 102 % of control under setting [15]; 97 % of control under setting [16]; 99 % of control (dose: 240.0 mg/kg/injection, schedule: Q01DX005 (ip), vehicle: saline).

For `CN1CCC(O)(c2ccc(Br)cc2)C(C(=O)c2ccc(Br)cc2)C1` (centres undefined), the T/C is 100 % of control under setting [1]; 100 % of control under setting [2]; 90 % of control and 91 % of control under setting [3].

With `CC(=O)Oc1ccc(C2COc3cc(OC(C)=O)c(OC(C)=O)cc3C2)cc1` (centres undefined), the T/C under setting [14] is 104 % of control; the T/C (dose: 120.0 mg/kg/injection, schedule: Q01DX005 (ip), vehicle: saline with Tween-80) was 104 % of control; the T/C (dose: 240.0 mg/kg/injection, schedule: Q01DX005 (ip), vehicle: saline with Tween-80) was 104 % of control.

With `CCOC(=O)NN(C(=O)OCC)C(C(C)=O)C(C)=NCCN=C(C)C(C(C)=O)N(NC(=O)OCC)C(=O)OCC.[Cu]` (centres undefined), the T/C was 100 % of control under setting [1]; 105 % of control under setting [2]; 100 % of control and 107 % of control under setting [3].

For `CCCNC(=O)Nc1cc(Cl)ccc1OC`, the T/C reads like this: (dose: 132.0 mg/kg/injection, schedule: Q04DX003 (ip), vehicle: saline with Tween-80) 100 % of control; (dose: 200.0 mg/kg/injection, schedule: Q04DX003 (ip), vehicle: saline with Tween-80) 100 % of control; under setting [13], 100 % of control.

On to `O=c1cc(O)n(C2=NCCN2)[nH]1`, for which the T/C was 97 % of control (dose: 60.0 mg/kg/injection, schedule: Q01DX005 (ip), vehicle: suspension in saline); 97 % of control (dose: 120.0 mg/kg/injection, schedule: Q01DX005 (ip), vehicle: suspension in saline); 105 % of control (dose: 240.0 mg/kg/injection, schedule: Q01DX005 (ip), vehicle: suspension in saline).

On to `CCC1CCC2CCOCN2C1` (centres undefined), for which the T/C by setting is: (dose: 50.0 mg/kg/injection, schedule: Q01DX005 (ip), vehicle: saline) 97 % of control; (dose: 100.0 mg/kg/injection, schedule: Q01DX005 (ip), vehicle: saline) 94 % of control.

As to `N#CSCc1ccccc1`, the T/C (dose: 3.13 mg/kg/injection, schedule: Q01DX009 (ip), vehicle: saline) is 100 % of control; the T/C (dose: 6.25 mg/kg/injection, schedule: Q01DX009 (ip), vehicle: saline) is 105 % of control; the T/C (dose: 12.5 mg/kg/injection, schedule: Q01DX009 (ip), vehicle: saline) was 104 % of control.

As to `O=c1c2c(oc3cc(OCC4CO4)ccc13)CCC2` (centres undefined), the T/C under setting [3] is 93 % of control, the T/C under setting [4] is 88 % of control and the T/C under setting [5] was 95 % of control.

For `c1cc2c3c(c1)nc(CCc1nc4cccc5c4n1CCC5)n3CCC2`, the T/C by setting is: (dose: 25.0 mg/kg/injection, schedule: Q04DX003 (ip), vehicle: saline with Tween-80) 109 % of control; (dose: 50.0 mg/kg/injection, schedule: Q04DX003 (ip), vehicle: saline with Tween-80) 86 % of control; (dose: 100.0 mg/kg/injection, schedule: Q04DX003 (ip), vehicle: saline with Tween-80) 86 % of control.

In the case of `CSc1cccc(NC(=O)Oc2cccnc2)c1`, the T/C is 103 % of control (dose: 50.0 mg/kg/injection, schedule: Q01DX009 (ip), vehicle: Klucel (hydroxypropylcellulose) (HPC)); 100 % of control (dose: 100.0 mg/kg/injection, schedule: Q01DX009 (ip), vehicle: Klucel (hydroxypropylcellulose) (HPC)); 100 % of control (dose: 200.0 mg/kg/injection, schedule: Q01DX009 (ip), vehicle: Klucel (hydroxypropylcellulose) (HPC)).

In the case of `CC(=O)Oc1ccccc1C#CC(=O)O`, the T/C by setting is: under setting [10], 96 % of control; under setting [11], 90 % of control; under setting [12], 94 % of control.

Regarding `CCOC(=O)Nc1cccc([N+](=O)[O-])c1`, the T/C was 95 % of control (dose: 100.0 mg/kg/injection, schedule: Q04DX003 (ip), vehicle: other); 95 % of control (dose: 200.0 mg/kg/injection, schedule: Q04DX003 (ip), vehicle: other); 100 % of control (dose: 400.0 mg/kg/injection, schedule: Q04DX003 (ip), vehicle: other).

Regarding `COc1ccc2c(c1OC)C(=O)N1C2=Cc2c(cc3c(c2OC)OCO3)CC1N(C)C` (centres undefined), the T/C under setting [15] was 103 % of control and the T/C under setting [16] was 100 % of control.
